Test results published in patent publication US20230348418A1, “ISOINDOLINONE COMPOUNDS” (Monte Rosa Therapeutics, Inc., priority 2021, published 2023).

Assays:
Type in all cases: cell-based
[1] = molecular target: GSPT1 (Homo sapiens, UniProt P15170+Q96SW2); assay: Quantitative proteomics analysis in ABC1 cells; conditions: 100 nM, 6 hr
Method: Quantitative Proteomics Analysis: ABC1 cells were treated with either DMSO (2 replicates) or compound 10 at 100 nM (2 replicates) for 6 hr. Proteins were extracted with the PreOmics iST-NHS lysis buffer (#P.O.00030). The samples were then processed using the PreOmics kit following their recommended protocol with minor modifications. In brief, the proteins were reduced, alkylated and digested for 2 h at 37° C. The peptides were then labelled with TMT reagent (1:4; peptide:TMT label) (Thermo Fisher Scientific). After quenching, the peptides were purified, and the 16 samples were combined to a 1:1 ratio. […] Eluted TMT peptides were analyzed on an Orbitrap Eclipse mass spectrometer (Thermo Fisher Scientific). […] Precursors were fragmented by CID at a normalized collision energy (NCE) of 35% and analyzed in the ion trap. Following MS2, synchronous precursor selection (SPS) MS3 scans were collected by using high energy collision-induced dissociation (HCD) and fragments were analyzed using the Orbitrap (NCE 55%, AGC target 1×10^5, maximum injection time 120 ms, resolution 60,000). Protein identification and quantification were performed using Proteome Discoverer 2.4.0.305 with the SEQUEST algorithm and Uniprot human database (2021-01-29, 20614 protein sequences). […] Protein relative quantification was performed using an in-house developed java notebook. […]

[2] = system: NCI-H1155, ABC-1 and EBC-1, NCI-H2023 cell lines; assay: Viability assay (CellTiter-Glo) in N-Myc high and N-Myc low NSCLC cell lines; conditions: 72 hours
Method: The anti-proliferative activity of compound 10 was tested on representative N-Myc high and N-Myc low cell lines (NCI-H1155, ABC-1 and EBC-1, NCI-H2023, respectively) following treatment with compound for 72 hours. Cells were sub-cultures as recommended by the providers (ATCC, DSMZ) and incubated at 37° C., 5% CO2. All cells were authenticated and confirmed by Short Tandem Repeat (STR) profiling. Briefly, cells were seeded to the appropriate density to allow logarithmic growth over the assay period in 96-well opaque-walled clear bottom plates (from Corning, Cat. No. 3903, Lot. No. 16419061; 100 μL total volume) and incubated overnight. […] Cell viability was assessed using the CellTiter-Glo assay kit as recommended by the Manufacturer (Promega, Cat. No. G7558, Lot. No. 0000385738) and measurements performed on the EnSpire multimode plate reader (Perkin Elmer). EC50 values were determined using Prism8 (GraphPad) and the asymmetric (five-parameter) equation and least squares fit. GSPT1 levels were assessed in the NCI-H1155 and ABC-1 cell lines by densitometry analysis following treatment with compound 10 for 6 hours and western blotting analysis. […] For chemiluminescence and colorimetric signals “optimal automatic exposure” settings (3×3 binning) were employed while fluorescence was detected using 1-4 seconds exposure time to achieve best GAPDH signals and avoid overexposure. […]

[3] = molecular target: T1, SALL4 (Homo sapiens, UniProt Q9UJQ4); assay: SALL4 degradation in treated cells (FIG. 1A); conditions: concentrations up to 30 µM
T1 construct: endogenous in cells
T1 sequence (Q96SW2 whole entry partner): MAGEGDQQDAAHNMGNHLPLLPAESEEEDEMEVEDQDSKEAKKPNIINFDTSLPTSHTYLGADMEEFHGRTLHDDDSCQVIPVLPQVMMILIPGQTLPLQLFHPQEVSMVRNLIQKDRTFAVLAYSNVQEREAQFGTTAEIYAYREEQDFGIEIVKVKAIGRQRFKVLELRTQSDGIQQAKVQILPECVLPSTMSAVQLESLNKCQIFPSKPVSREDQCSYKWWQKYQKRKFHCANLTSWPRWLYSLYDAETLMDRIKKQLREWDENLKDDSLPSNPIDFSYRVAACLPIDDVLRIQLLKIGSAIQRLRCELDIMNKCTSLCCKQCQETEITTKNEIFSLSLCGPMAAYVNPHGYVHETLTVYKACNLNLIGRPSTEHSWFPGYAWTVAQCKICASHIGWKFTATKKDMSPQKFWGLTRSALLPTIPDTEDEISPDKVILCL
T1 sequence (Q16531 2-1140 partner limits assumed): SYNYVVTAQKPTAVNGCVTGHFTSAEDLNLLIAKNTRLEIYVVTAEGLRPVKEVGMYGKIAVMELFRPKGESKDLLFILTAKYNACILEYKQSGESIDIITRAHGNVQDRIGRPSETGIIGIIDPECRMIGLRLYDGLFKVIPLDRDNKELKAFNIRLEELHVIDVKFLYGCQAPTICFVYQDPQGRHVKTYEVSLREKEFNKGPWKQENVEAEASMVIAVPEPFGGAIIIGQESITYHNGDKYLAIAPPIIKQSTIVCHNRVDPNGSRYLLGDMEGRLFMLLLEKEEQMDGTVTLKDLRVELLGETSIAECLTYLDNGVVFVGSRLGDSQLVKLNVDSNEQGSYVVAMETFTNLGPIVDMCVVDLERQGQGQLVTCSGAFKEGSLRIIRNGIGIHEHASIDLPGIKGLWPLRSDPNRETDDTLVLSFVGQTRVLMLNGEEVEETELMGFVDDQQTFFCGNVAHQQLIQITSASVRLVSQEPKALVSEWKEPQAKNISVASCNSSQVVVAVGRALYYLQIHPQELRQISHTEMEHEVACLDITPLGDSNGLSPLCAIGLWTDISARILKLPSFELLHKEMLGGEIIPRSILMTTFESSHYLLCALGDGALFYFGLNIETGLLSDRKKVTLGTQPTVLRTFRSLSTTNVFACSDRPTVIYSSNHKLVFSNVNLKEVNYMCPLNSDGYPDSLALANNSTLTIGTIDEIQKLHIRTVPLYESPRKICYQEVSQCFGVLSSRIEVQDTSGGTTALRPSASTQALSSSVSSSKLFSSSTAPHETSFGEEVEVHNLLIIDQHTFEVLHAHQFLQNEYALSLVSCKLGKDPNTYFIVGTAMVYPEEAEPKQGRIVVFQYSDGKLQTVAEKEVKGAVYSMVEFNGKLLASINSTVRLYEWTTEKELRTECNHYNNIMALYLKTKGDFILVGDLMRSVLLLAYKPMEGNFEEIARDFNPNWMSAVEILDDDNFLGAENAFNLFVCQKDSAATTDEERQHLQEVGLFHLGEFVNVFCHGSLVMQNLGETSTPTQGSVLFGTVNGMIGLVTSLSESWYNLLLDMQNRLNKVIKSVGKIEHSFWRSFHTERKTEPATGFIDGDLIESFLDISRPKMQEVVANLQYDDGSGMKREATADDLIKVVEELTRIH
T1 sequence (Q9UJQ4 whole entry): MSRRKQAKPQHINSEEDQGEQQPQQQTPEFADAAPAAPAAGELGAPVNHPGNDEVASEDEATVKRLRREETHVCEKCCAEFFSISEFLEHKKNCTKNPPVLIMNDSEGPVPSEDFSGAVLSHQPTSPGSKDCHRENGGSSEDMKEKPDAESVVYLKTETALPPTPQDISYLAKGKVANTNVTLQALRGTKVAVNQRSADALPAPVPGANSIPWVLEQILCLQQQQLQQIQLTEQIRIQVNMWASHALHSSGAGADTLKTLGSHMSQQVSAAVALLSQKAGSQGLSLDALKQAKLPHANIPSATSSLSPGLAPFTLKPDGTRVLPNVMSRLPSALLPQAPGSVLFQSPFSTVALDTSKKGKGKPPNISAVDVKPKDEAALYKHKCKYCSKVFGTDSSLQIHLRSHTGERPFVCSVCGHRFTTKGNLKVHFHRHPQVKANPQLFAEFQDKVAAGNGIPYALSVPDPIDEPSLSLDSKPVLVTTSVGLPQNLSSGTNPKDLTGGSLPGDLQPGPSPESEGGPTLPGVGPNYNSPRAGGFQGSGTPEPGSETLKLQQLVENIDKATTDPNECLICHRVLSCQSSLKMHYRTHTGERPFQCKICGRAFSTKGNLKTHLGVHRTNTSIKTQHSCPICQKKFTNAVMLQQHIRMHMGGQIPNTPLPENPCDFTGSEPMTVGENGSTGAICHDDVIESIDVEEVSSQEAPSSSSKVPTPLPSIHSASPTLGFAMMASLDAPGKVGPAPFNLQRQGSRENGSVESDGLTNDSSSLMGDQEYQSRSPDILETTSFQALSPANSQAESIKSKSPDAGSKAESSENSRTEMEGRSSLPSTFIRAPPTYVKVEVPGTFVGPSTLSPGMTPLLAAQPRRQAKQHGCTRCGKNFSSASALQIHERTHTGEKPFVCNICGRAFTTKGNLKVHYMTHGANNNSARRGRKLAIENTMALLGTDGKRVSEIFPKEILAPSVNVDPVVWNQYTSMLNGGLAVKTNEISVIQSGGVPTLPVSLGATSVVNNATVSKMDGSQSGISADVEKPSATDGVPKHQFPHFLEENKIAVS

Chain of GSPT1 (P15170 whole entry, the tested form may be a part): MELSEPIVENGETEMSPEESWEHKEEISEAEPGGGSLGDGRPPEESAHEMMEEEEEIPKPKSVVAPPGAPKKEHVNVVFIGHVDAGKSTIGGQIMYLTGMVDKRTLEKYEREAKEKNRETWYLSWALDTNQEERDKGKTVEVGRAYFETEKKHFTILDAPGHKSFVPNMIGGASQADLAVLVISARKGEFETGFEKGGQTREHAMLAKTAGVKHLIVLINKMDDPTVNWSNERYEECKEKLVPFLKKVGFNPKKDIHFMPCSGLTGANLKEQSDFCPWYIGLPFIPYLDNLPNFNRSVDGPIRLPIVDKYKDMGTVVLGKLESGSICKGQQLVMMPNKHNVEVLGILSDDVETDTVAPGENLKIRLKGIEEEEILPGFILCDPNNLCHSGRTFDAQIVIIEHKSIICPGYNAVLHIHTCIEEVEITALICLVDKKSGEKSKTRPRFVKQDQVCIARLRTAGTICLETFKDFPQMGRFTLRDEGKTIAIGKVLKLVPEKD
Chain of GSPT1 (Q96SW2 whole entry, the tested form may be a part): as the sequence (Q96SW2 whole entry partner) above
Chain of GSPT1 (Q16531 2-1140 partner limits assumed): as the sequence (Q16531 2-1140 partner limits assumed) above

degradation of SALL4 [3]: no induction of degradation
Structure (SMILES): Cc1ccc(NC(=O)OCc2ccc3c(c2)C(=O)N(C2CCC(=O)NC2=O)C3)cc1Cl (stereo not drawn) [Compound 10]
Protein downregulation in mass spectrometry-based proteomics (FIG. 1B) [1]: GSPT1 was the most statistically significant downregulated protein | Sensitivity (anti-proliferative activity) versus N-Myc expression (FIG. 2A) [2]: sensitivity correlated with the expression of N-Myc
